Assay results reported in ChEMBL document CHEMBL1136624, “Synthesis and anticancer effect of chrysin derivatives” (Bioorg Med Chem Lett, 2003).

How the values were obtained:
SGC-7901 = experiment: In vitro inhibitory concentration required against human gastric adenocarcinoma SGC-7901 cell line; type: functional, cell-based
HT-29 = experiment: In vitro inhibitory concentration required against human colorectal adenocarcinoma HT-29 cell line; type: functional, cell-based

Row | Structure (SMILES) | IC50 (SGC-7901) [nM] | IC50 (HT-29) [nM]
1 | O=c1cc(-c2ccccc2)oc2c(I)c(O)c(I)c(O)c12 | 2900 | 4400
2 | CC(=O)Oc1c(I)c(O)c2c(=O)cc(-c3ccccc3)oc2c1I | 4200 | 3000
3 | COc1c([N+](=O)[O-])c(O)c2c(=O)cc(-c3ccccc3)oc2c1I | 6400 | 2300
4 | COc1cc(OC)c2c(=O)cc(-c3ccccc3)oc2c1 [CHRYSIN DIMETHYL ETHER] | 3700 | 2000
5 | O=c1cc(-c2ccccc2)oc2cc(O)cc(O)c12 [CHRYSIN] | 5800 | 3100
6 | O=c1cc(-c2ccccc2)oc2c(Br)c(O)c(Br)c(O)c12 | 5100 | 4000
7 | CC(=O)Oc1cc(OC(C)=O)c2c(=O)cc(-c3ccccc3)oc2c1 [CHRYSIN DIACETATE] | 4500 | 2600
8 | COc1cc(O)c2c(=O)cc(-c3ccccc3)oc2c1Br | 2500 | 1900
9 | CC(=O)Oc1cc(O)c2c(=O)cc(-c3ccccc3)oc2c1 | 3600 | 3800
10 | COc1cc(OC)c2c(=O)cc(-c3ccccc3)oc2c1I | 2200 | 2600
11 | COc1cc(OC)c2c(=O)cc(-c3ccccc3)oc2c1C(F)(F)F | 5900 | 2300
12 | O=c1cc(-c2ccccc2)oc2c([N+](=O)[O-])c(O)cc(O)c12 | 2800 | 2300
13 | CC(=O)Oc1c(C(F)(F)F)c(O)c2c(=O)cc(-c3ccccc3)oc2c1C(F)(F)F |  | 2900
